Results taken from paper PMC6053601, “The role of the jaw subdomain of peptidoglycan glycosyltransferases for lipid II polymerization” (The Cell Surface, 2018).

How the values were obtained:
[1] = target: T1, Staphylococcus aureus monofunctional glycosyltransferase (SaMGT) (Staphylococcus aureus, UniProt Q7A0I6, E100Q); experiment: X-ray crystal structure, […] Å (re-refinement of 3HZS, polder omit maps); type: binding
T1 construct: gene mgt

[2] = target: T2, Staphylococcus aureus monofunctional glycosyltransferase (SaMGT) (Staphylococcus aureus, UniProt Q7A0I6); experiment: ITC (VP-ITC, […] °C, sequential binding site model)
T2 construct: gene mgt; wild-type full-length SaMGT (residues Q28-R269)

C=C(C/C=C(\C)CCC=C(C)C)CCC(C)(C)/C=C/CC/C(C)=C\CO[C@H](COP(=O)(O)O[C@H]1O[C@H](C(N)=O)[C@@](C)(O)[C@H](OC(N)=O)[C@H]1O[C@@H]1O[C@H](CO[C@@H]2O[C@H](CO)[C@@H](O)[C@H](O)[C@H]2O)[C@@H](O[C@@H]2O[C@H](C)[C@@H](O[C@@H]3O[C@H](C(=O)NC4=C(O)CCC4=O)[C@H](O)[C@H](O)[C@H]3O)[C@H](O)[C@H]2NC(C)=O)[C@H](O)[C@H]1NC(C)=O)C(=O)O [MoeA, moenomycin A]
X-ray crystal structure, 2.1 Å (re-refinement of 3HZS, polder omit maps) [1]: Overall view of the re-refined structure of SaMGT E100Q mutant with bound MoeA (PDB ID code 6FTB). | Kd [2]: 540 nM
